# Data taken from PMC12036557, “Functional Imaging of CYP3A4 at Multiple Dimensions Using an AI‐Driven High Performance Fluorogenic Substrate” (Small (Weinheim an Der Bergstrasse, Germany), 2025).
# Read-outs that look alike come from different tables or passages of the source.
# How the values were obtained:
# hCYP3A4 in HLMs [1] = target: T1, hCYP3A4 in HLMs (Homo sapiens, UniProt P08684); test: NFa-based screening and characterizing of hCYP3A4 inhibitors in HLMs; settings: inhibitor 1 μM, HLMs, NFa as fluorogenic substrate
# [2] = system: panel of human recombinant cytochrome P450 enzymes; test: P450 reaction phenotyping analysis; format: biochemical; settings: each recombinant CYP 2.5 nM, 37 °C, 30 min
# CYP3A4 [3] = target: T2, CYP3A4 (Homo sapiens, UniProt P08684); test: Enzyme kinetic analyses of NFs 4-hydroxylation by hCYP3A4; format: biochemical; set-up: purchased Cypex
# CYP3A4 [4] = target: T2, CYP3A4; set-up: expressed in transfected cells; host or cells: CHO-3A4 stably transfected cell line; settings: cited from earlier work; for Specificity / cell-membrane permeability (Shortages): previously reported fluorescent substrates; for Specificity: ref 7-10 of the supplement; for cell-membrane permeability (Shortages): 9 of the supplement
# [5] = Metabolic stability assay of 4-HNFa in phase II metabolizing system; format: in vitro ADME; settings: human, pH 7.4; HLMs in the presence of UDPGA; read-out: metabolic half-life t1/2
# [6] = Optical properties, photostability and pH stability of NFa and 4-HNFa; format: physicochemical; set-up: maximum UV absorption: unit not given here
# [7] = system: MCF‐7, Hep3B, and U87 cells; test: Cytotoxicity assays; format: cell-based
# hCYP3A4 in HLMs [8] = target: T1, hCYP3A4 in HLMs; settings: 1 µM
# CYP3A4 [9] = target: T2, CYP3A4; test: in vitro; settings: pH 7.4
# T1 sequence (P08684 whole entry): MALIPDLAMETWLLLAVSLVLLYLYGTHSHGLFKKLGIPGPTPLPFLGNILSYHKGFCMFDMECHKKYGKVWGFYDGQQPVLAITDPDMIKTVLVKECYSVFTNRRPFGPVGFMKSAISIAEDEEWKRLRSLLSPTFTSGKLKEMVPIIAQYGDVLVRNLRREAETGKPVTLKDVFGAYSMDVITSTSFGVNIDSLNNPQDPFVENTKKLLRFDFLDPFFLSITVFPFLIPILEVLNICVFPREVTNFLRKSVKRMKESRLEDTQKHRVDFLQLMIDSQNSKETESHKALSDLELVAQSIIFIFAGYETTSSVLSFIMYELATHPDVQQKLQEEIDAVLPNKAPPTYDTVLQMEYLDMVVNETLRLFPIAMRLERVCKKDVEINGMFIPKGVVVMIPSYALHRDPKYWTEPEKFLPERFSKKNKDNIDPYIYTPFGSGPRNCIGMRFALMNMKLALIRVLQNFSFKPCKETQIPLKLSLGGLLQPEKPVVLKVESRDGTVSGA
# T2 sequence (P08684 whole entry): as above
compound,measurement,setting,value
O=C1C[C@@H](c2ccc(O)cc2)Oc2cc(O)ccc21 [Liquiritigenin],Residual activity,hCYP3A4 in HLMs [1],90.60%
"CC(C)c1nc(CN2C(=O)c3cccc4cccc(c34)C2=O)cs1 [NFd, N-(2-Isopropyl-4-thiazolemethanamino)-naphtahlimide]",isoform specificity as P450 substrate,[2],highly specific substrates for hCYP3A4
same,CL int (V max/K m),CYP3A4 [3],504 µL min^−1/nmol hCYP3A4
same,K m,CYP3A4 [3],4.17 ± 0.21 µM
COc1cc2c(cc1OC)-c1cc3ccc4c(c3c[n+]1CC2)OCO4 [Epiberberine],Residual activity,hCYP3A4 in HLMs [1],89.82%
COc1ccc(-c2oc3c(CC=C(C)C)c(O)cc(O)c3c(=O)c2O)cc1 [Anhydroicaritin],Residual activity,hCYP3A4 in HLMs [1],87.82%
COc1cc2c(cc1O)[C@@H](Cc1ccc(O)c(Oc3ccc(C[C@@H]4c5cc(OC)c(OC)cc5CCN4C)cc3)c1)N(C)CC2 [Daurisoline],Residual activity,hCYP3A4 in HLMs [1],91.85%
CC(C)=CCCC(C)(O)[C@H]1CC[C@]2(C)[C@@H]1[C@H](O)C[C@@H]1[C@@]3(C)CC[C@H](O)C(C)(C)[C@@H]3CC[C@]12C (stereo in doubt) [Protopanaxadiol],Residual activity,hCYP3A4 in HLMs [1],69.66%
"O=C(OCc1ccccc1)c1ccccc1-c1c2ccc(=O)cc-2oc2cc(OCc3ccccc3)ccc12 [DBF, dibenzylfluorescein]",Specificity,CYP3A4 [4],"CYP2C8, CYP3A4, CYP3A5"
"O=c1ccc2ccc(O)cc2o1 [7‐hydroxycoumarin, reference compound]",half-life at 20 μM,[5],16.9 min
CC(C)=CCC[C@](C)(O)[C@H]1CC[C@]2(C)[C@@H]1[C@H](O)C[C@@H]1[C@@]3(C)CC[C@H](O)C(C)(C)[C@@H]3[C@@H](O)C[C@]12C [Protopanaxatriol],Residual activity,hCYP3A4 in HLMs [1],43.85%
CC(C)=CCc1cc(C(=O)/C=C/c2ccc(O)cc2)c(O)cc1O [Bavachalcone],Residual activity,hCYP3A4 in HLMs [1],90.43%
"O=c1ccc2nc3ccc(OCc4ccccc4)cc3oc-2c1 [BzRes, 7-benzyloxyresorufin]",cell-membrane permeability (Shortages),CYP3A4 [4],low cell-membrane permeability; unavailable in vivo
same,Specificity,CYP3A4 [4],CYP3A4 non-specific substrate
CCN1C[C@]2(OC(=O)c3ccccc3NC(C)=O)CC[C@H](OC)[C@@]34[C@@H]2C[C@@H]([C@@H]13)[C@@]1(O)C[C@H](OC)[C@H]2C[C@@H]4[C@]1(O)[C@H]2OC [Lappaconitine],Residual activity,hCYP3A4 in HLMs [1],94.46%
"Cc1nc(CN2C(=O)c3cccc4cccc(c34)C2=O)cs1 [NFb, N-(2-Methyl-4-thiazolemethanamino)-naphtahlimide]",isoform specificity as P450 substrate,[2],highly specific substrates for hCYP3A4
same,CL int (V max/K m),CYP3A4 [3],558 µL min^−1/nmol hCYP3A4
same,K m,CYP3A4 [3],7.51 ± 0.49 µM
"O=c1cc(C(F)(F)F)c2ccc(OCc3ccccc3)cc2o1 [BFC, 7-benzyloxy-4-trifluoromethylcoumarin]",Specificity,CYP3A4 [4],CYP3A4 non-specific substrate
"O=C1c2cccc3c(O)ccc(c23)C(=O)N1Cc1cscn1 [4-HNFa, 4-Hydroxyl-N-(4-thiazolemethanamino)-naphtahlimide]",half-life at 20 μM,[5],58.6 min
same,Fluorescence quantum yield Φf,[6],0.129
same,Molar extinction coefficient ε,[6],25300 M⁻¹ cm⁻¹
same,maximum UV absorption,[6],450
same,maximum fluorogenic emission,[6],555 nm
same,pH range of stable fluorescence signals ≈555 nM,[6]; 2 μM,6.5–12.0
same,photostability,[6]; continuous illumination at 450 nm,good photostability
same,cytotoxicity,[7],weak cytotoxicity
Sanggenone C,Residual activity,hCYP3A4 in HLMs [8],92.64%
COc1c(/C=C/C(=O)c2ccc(O)cc2)ccc(O)c1CC=C(C)C [Licochalcone C],Residual activity,hCYP3A4 in HLMs [8],59.04%
O=C1c2c(O)cc(O)cc2O[C@H](c2ccc(O)cc2)[C@H]1O [Aromadendrin],Residual activity,hCYP3A4 in HLMs [1],91.70%
COc1ccc(-c2cc(=O)c3c(O)c(OC)c(O)c(OC)c3o2)cc1 [Lysionotin],Residual activity,hCYP3A4 in HLMs [1],96.88%
C=CC(C)(C)c1cc(/C=C/C(=O)c2ccc(O)cc2)c(OC)cc1O [Licochalcone A],Residual activity,hCYP3A4 in HLMs [1],39.20%
COc1cc2c(=O)n(C)c3c4cc5c(cc4ccc3c2cc1OC)OCO5 [Oxynitidine],Residual activity,hCYP3A4 in HLMs [1],89.98%
"CCN1C(=O)c2cccc3cccc(c23)C1=O [NEN, N‐ethyl‐1,8‐naphthalimide]",cell‐membrane permeability,CYP3A4 [4],very poor cell‐membrane permeability
same,cell-membrane permeability (Shortages),CYP3A4 [4],low cell-membrane permeability; unavailable in vivo
same,Specificity,CYP3A4 [4],CYP3A4 specific substrate
COC[C@@]12CC[C@H](OC)[C@]34C(C([C@H](OC)[C@H]13)[C@]1(OC(C)=O)[C@H]3[C@@H](OC(=O)c5ccccc5)[C@](O)(C[C@H]34)[C@@H](OC)[C@@H]1O)N(C)C2 [Hypaconitine],activity at 1 µM,CYP3A4 [9],94.9%
CN1[C@@H]2CC[C@H]1C[C@@H](OC(=O)[C@H](CO)c1ccccc1)C2 [Hyoscyamine],activity at 1 µM,CYP3A4 [9],98%
c1c2c(cc3c1OCO3)-c1cc3ccc4c(c3c[n+]1CC2)OCO4 [Coptisine],activity at 1 µM,CYP3A4 [9],77.9%
